# Patent publication US20240325544A1, “CATIONIC LIPID FOR COVALENT MODIFICATION OF PEPTIDES” (PharmalN Corporation, priority 2023, published 2024)
# Bridge positions count the residues as written; N and C are the ends. Square brackets hold non-standard residues; d marks the D form. Peptide text beside a SMILES is read from it. * marks the point of attachment. Palmitoyl = CCCCCCCCCCCCCCCC(=O)*; Dap = NC[C@H](N)C(=O)O; AEEA = NCCOCCOCC(=O)O
# Columns and labels:
# MC38 colon cancer cells = test: Subcutaneous mouse model of colon cancer using MC38 cells (FIG. 12); type: in vivo, mice; details: monotherapy, 0.3 mg/kg SC, 5 days on, 2 days off, 3 cycles; Day 22
# Procedure: FIGS. 12A-12B. […] Error bars represent standard error of the mean. FIG. 12A) A diagram of the dose schedule for administration of immune checkpoint inhibitor (anti-tigit Ab) and SEQ ID NO: 31. FIG. 12 B) Tumor growth kinetics of 6-week-old male C57BL/6J mice (n=8-9 per group) that were subcutaneously inoculated with MC38 colon cancer cells (1,000,000 cells/mouse) in right flank. Starting from Day 4 post-inoculation, anti-tigit Ab was administered intraperitoneally at 5 mg/kg twice a week for 2 cycles; SEQ ID NO: 31 was administered subcutaneously at a bolus dose of 0.3 mg/kg (0.1 μmol/kg) once daily for 5 days (5 days on, 2 days off) for 3 cycles; or a combination of anti-tigit Ab (5 mg/kg IP twice a week; 2 cycles) and SEQ ID NO: 31 (0.3 mg/kg SC once a day for 5 days on and 2 days off; 3 cycles). The control group, which received only buffer, was dosed in the same manner as SEQ ID NO: 31 to establish the baseline tumor growth kinetics. […]
# Animal care and treatment: Male C57BL/6J mice (6 weeks-old) were purchased from Kyudo (Saga, Japan) and maintained under a 12-hour light/12-hour dark cycle with free access to water and standard mouse diet (MF diet; Oriental Yeast Co., Ltd, Tokyo Japan). […] Tumor sizes were measured using calipers on Days 4, 7, 14, and Day 22 post-inoculation. […]
# NPR-C = biological target: T1, NPR-C (Homo sapiens, UniProt P17342); test: cAMP baseline levels in HeLa cells (FIG. 13); type: cell-based; details: 10 μg/mL, 10 minutes, 1 mM IBMX
# T1 construct: HeLa cells (known to express NPR-C); host or cells: HeLa cells
# T1 sequence (P17342 27-541): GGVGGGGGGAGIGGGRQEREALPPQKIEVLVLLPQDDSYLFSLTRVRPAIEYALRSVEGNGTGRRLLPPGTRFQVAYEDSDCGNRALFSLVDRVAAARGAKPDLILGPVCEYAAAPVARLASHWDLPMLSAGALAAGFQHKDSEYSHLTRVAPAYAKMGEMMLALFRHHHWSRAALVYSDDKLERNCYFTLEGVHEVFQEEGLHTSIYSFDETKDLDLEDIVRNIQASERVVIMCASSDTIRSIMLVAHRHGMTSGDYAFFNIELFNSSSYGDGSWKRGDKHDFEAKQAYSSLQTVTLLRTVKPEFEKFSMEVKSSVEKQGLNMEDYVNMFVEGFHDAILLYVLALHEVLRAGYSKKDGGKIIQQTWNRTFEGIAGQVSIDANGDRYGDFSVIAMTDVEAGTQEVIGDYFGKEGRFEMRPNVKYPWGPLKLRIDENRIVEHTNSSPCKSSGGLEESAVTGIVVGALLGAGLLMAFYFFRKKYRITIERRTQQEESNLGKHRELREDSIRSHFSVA
# Procedure: In this study, HeLa cells were cultured in Dulbecco modified Eagle medium (DMEM) supplemented with 10% FBS under 100% humidity and 5% CO2 at 37° C. The cells were harvested and suspended at a concentration of 10^7 cells/mL in ENGS and 5 uL of the cell suspension was added to each well of a 96-well low-adhesion plate. The cells (n=4 wells) were then treated with 5 uL of SEQ ID NO: 31 (final concentration of 10 μg/mL) in ENGS with 1 mM IBMX for 10 minutes. cAMP levels were evaluated using a cAMP assay kit (PerkinElmer, Waltham, MA, USA, #62AM4PEB) in accordance with its manufacture's protocol with a PerkinElmer plate reader. Statistical analysis was performed with GraphPad Prism against untreated control wells (n=4 wells) * P<0.05. The NPR-C receptor has been implicated in inhibiting adenylate cyclase activity, which would lead to a decrease in cyclic adenosine monophosphate (cAMP) production.
# In vitro protocol: HeLa cells were purchased from ATCC (Manassas, VA, USA). […] Then, the cells (n=4 wells) were treated with 5 uL of SEQ ID NO: 31 (final concentration of 10 μg/mL) in ENGS with 1 mM IBMX (Fujifilm, Tokyo, Japan, #099-03411) for 10 minutes. cAMP levels were evaluated using a cAMP assay kit (PerkinElmer, Waltham, MA, USA, #62AM4PEB) in accordance with its manufacture's protocol with a plate reader (PerkinElmer, Waltham, MA, USA, #Nivo). […]
compound,measurement,setting,value
CCCCCCCCCCCCCCCC(=O)NCCOCCOCC(=O)NCCOCCOCC(=O)NCCOCCOCC(=O)N[C@@H](CN)C(=O)N[C@@H](CN)C(=O)NCC(=O)N[C@@H](CC(C)C)C(=O)N[C@@H](CO)C(=O)N[C@@H](CCCCN)C(=O)NCC(=O)N[C@H]1CSSC[C@@H](C(=O)O)NC(=O)CNC(=O)[C@H](CC(C)C)NC(=O)CNC(=O)[C@H](CO)NC(=O)[C@H](CCC(N)=O)NC(=O)[C@H](CO)NC(=O)CNC(=O)[C@H]([C@@H](C)CC)NC(=O)[C@H](CCCNC(=N)N)NC(=O)[C@H](CC(=O)O)NC(=O)[C@H](CC(C)C)NC(=O)[C@H](CCCCN)NC(=O)[C@H](CC(C)C)NC(=O)CNC(=O)[C@H](Cc2ccccc2)NC1=O [SEQ ID NO: 31] ({Palmitoyl-AEEA-AEEA-AEEA}-[Dap][Dap]GLSKGCFGLKLDRIGSQSGLGC-OH; disulfide 8-24; C-terminus assumed),Tumor volume and cancer burden compared to the Control group,MC38 colon cancer cells,significant decrease in tumor volume and cancer burden
same,cAMP baseline levels of HeLa cells,NPR-C,changes (inhibition) of cAMP baseline levels
